Results: the kinase profiling compilation of Christmann-Franck et al. (2016)

Tests used:
Experiment in all cases: radiometric filter-binding kinase assay, Kinase HotSpot
Conditions in all cases: compound 0.5 µM; ATP 10 µM
[1] = target: TEK (human) (UniProt Q02763)
[2] = target: STK11 (human) (UniProt Q15831)
[3] = target: CSNK1G1 (human) (UniProt Q9HCP0)
[4] = target: TSSK1B (human) (UniProt Q9BXA7)
[5] = target: IGF1R (human) (UniProt P08069)
[6] = target: MAP4K5 (human) (UniProt Q9Y4K4)
[7] = target: PLK2 (human) (UniProt Q9NYY3)
[8] = target: MAP3K8 (human) (UniProt P41279)
[9] = target: PBK (human) (UniProt Q96KB5)
Sequence of PBK (human) (Q96KB5 whole entry, looked up): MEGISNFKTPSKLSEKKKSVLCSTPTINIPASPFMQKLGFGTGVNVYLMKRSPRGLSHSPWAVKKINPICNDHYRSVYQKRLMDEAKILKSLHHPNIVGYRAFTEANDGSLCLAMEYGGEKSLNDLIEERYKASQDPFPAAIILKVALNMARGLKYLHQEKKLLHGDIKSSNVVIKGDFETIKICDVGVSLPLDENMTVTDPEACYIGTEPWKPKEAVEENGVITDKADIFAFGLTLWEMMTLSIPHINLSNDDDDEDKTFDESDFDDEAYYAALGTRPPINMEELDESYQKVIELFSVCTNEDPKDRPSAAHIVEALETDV

[10] = target: MAP3K5 (human) (UniProt Q99683)
[11] = target: PAK1 (human) (UniProt Q13153)
[12] = target: CDK9 CCNK (human) (UniProt O75909+P50750)
[13] = target: CLK1 (human) (UniProt P49759)
[14] = target: FYN (human) (UniProt P06241)
[15] = target: MARK3 (human) (UniProt P27448)
Sequence of MARK3 (human) (P27448 whole entry, looked up): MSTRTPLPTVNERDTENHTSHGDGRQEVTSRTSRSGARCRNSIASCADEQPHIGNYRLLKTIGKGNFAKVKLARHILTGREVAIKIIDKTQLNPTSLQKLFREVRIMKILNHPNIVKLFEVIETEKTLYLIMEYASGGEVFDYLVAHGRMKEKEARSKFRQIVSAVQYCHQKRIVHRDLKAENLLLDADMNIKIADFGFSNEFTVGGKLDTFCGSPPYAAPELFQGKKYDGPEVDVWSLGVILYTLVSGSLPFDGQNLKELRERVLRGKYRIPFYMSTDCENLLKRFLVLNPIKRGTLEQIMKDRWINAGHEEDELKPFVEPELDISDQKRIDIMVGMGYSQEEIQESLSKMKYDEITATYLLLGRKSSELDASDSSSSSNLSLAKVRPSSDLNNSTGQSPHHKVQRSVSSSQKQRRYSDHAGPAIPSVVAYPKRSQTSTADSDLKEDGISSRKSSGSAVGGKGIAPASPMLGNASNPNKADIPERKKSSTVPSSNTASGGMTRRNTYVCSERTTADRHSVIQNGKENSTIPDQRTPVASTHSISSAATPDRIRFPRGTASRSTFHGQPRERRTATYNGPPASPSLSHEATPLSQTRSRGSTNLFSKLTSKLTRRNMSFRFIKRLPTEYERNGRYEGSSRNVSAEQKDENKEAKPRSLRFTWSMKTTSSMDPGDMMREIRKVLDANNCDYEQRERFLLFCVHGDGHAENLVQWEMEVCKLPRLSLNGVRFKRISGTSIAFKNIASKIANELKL

[16] = target: PAK3 (human) (UniProt O75914)
Sequence of PAK3 (human) (O75914 whole entry, looked up): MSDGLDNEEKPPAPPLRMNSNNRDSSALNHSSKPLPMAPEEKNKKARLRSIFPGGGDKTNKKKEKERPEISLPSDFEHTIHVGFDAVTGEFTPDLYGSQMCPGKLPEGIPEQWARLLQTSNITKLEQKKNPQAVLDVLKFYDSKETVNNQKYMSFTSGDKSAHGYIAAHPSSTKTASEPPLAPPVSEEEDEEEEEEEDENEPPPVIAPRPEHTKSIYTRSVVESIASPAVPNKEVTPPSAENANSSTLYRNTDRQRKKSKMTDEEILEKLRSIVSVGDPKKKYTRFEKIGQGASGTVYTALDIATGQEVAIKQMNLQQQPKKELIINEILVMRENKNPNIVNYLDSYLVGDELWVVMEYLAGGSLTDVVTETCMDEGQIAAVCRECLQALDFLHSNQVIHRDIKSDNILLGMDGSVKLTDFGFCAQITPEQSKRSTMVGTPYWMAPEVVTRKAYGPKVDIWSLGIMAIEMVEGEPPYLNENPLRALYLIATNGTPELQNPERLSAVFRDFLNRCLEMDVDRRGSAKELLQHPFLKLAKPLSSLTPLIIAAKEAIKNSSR

[17] = target: MAP3K9 (human) (UniProt P80192)
[18] = target: PRKCE (human) (UniProt Q02156)
[19] = target: FLT3 (human) (UniProt P36888)
[20] = target: IKBKE (human) (UniProt Q14164)
[21] = target: PRKCG (human) (UniProt P05129)
[22] = target: ACVR1B (human) (UniProt P36896)
[23] = target: TNK2 (human) (UniProt Q07912)
[24] = target: PRKG2 (human) (UniProt Q13237)
[25] = target: ULK1 (human) (UniProt O75385)
[26] = target: DAPK1 (human) (UniProt P53355)
Sequence of DAPK1 (human) (P53355 whole entry, looked up): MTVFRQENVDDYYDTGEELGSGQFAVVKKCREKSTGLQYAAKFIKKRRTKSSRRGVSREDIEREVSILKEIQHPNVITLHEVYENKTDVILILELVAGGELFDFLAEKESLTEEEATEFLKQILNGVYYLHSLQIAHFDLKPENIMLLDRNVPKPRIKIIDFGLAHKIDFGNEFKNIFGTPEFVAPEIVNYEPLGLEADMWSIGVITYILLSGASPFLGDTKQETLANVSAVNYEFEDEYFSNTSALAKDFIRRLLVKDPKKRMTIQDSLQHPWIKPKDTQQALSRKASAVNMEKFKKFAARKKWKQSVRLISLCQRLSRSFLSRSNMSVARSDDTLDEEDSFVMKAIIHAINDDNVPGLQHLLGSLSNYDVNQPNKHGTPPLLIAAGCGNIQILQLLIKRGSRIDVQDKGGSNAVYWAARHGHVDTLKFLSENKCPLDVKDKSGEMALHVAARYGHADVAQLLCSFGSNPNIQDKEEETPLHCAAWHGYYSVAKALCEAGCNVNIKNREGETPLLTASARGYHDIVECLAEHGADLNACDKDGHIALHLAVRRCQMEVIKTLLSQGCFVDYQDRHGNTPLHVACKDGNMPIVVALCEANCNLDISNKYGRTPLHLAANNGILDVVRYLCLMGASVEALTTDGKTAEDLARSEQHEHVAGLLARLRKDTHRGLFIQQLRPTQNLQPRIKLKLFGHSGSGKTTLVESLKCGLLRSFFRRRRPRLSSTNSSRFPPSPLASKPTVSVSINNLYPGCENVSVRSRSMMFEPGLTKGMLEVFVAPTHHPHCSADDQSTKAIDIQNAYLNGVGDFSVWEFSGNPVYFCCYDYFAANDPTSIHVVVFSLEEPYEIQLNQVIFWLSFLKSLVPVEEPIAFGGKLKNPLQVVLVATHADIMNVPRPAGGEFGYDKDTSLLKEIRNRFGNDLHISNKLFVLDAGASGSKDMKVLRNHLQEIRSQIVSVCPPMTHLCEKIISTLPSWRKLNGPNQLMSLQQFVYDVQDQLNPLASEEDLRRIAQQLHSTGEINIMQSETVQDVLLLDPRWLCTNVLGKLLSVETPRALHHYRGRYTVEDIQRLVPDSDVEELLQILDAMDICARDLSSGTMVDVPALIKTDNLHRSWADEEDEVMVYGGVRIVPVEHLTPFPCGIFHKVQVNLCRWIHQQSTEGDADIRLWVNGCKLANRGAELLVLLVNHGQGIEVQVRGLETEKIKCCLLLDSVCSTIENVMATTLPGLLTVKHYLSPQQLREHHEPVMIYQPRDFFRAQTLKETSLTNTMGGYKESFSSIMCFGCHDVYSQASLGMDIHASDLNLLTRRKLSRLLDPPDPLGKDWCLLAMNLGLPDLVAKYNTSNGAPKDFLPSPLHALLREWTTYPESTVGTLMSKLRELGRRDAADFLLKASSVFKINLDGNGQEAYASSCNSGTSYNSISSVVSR

[27] = target: CAMK1D (human) (UniProt Q8IU85)
Sequence of CAMK1D (human) (Q8IU85 whole entry, looked up): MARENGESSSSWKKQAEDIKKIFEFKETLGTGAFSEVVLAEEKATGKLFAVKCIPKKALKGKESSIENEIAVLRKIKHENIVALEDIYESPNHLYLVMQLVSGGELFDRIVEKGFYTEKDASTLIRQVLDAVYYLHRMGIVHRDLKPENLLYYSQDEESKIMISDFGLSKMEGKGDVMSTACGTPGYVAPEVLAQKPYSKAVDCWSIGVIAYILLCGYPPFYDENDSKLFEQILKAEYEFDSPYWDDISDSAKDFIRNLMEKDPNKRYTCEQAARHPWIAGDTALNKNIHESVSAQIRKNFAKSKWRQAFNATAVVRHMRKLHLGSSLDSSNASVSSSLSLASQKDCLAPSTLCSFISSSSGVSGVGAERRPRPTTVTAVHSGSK

[28] = target: JAK3 JH1 JH2 (human) (UniProt P52333)
[29] = target: TXK (human) (UniProt P42681)
[30] = target: AURKB (human) (UniProt Q96GD4)
[31] = target: SRPK2 (human) (UniProt P78362)
Sequence of SRPK2 (human) (P78362 whole entry, looked up): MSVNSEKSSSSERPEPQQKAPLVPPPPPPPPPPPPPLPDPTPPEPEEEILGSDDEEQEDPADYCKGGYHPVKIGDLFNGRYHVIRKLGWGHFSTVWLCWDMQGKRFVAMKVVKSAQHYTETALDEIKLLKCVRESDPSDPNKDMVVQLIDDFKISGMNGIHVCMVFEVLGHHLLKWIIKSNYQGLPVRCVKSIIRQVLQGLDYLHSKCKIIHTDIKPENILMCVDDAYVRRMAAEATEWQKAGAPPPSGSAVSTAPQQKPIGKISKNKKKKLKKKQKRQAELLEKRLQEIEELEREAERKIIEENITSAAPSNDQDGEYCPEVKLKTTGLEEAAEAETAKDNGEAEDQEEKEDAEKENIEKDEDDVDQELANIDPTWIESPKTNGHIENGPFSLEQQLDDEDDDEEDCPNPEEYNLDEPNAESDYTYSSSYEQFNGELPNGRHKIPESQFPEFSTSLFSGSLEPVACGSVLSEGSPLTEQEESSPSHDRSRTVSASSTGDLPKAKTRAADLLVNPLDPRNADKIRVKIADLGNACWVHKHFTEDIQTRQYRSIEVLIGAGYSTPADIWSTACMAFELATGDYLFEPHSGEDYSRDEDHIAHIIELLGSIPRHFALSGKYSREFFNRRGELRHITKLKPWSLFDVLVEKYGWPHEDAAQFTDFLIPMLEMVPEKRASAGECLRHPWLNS

[32] = target: TGFBR1 (human) (UniProt P36897)
Sequence of TGFBR1 (human) (P36897 whole entry, looked up): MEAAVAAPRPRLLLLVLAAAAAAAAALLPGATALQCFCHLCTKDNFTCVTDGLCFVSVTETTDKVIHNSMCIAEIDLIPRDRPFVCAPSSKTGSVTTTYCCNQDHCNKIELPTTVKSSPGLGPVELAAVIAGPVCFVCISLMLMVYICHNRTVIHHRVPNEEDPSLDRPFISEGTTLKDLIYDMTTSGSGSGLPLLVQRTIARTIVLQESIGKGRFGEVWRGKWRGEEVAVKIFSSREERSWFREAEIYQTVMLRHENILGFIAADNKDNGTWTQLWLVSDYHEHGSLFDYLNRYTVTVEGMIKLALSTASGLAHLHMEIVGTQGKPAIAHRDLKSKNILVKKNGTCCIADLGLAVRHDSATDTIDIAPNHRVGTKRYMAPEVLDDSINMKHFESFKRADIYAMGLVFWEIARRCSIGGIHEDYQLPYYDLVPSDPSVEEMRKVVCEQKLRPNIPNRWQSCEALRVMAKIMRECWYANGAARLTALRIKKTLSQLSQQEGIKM

[33] = target: AXL (human) (UniProt P30530)
[34] = target: HCK (human) (UniProt P08631)
[35] = target: CDK5 CDK5R1 p35 (human) (UniProt Q00535+Q15078)
[36] = target: CDK9 CCNT1 (human) (UniProt P50750+O60563)
[37] = target: RPS6KA2 KD1 KD2 (human) (UniProt Q15349)
[38] = target: STK33 (human) (UniProt Q9BYT3)
[39] = target: INSR (human) (UniProt P06213)
[40] = target: SRPK3 (human) (UniProt Q9UPE1)
[41] = target: NEK7 (human) (UniProt Q8TDX7)
[42] = target: MAPKAPK2 (human) (UniProt P49137)

Sequence of TSSK1B (human) (Q9BXA7 whole entry, looked up): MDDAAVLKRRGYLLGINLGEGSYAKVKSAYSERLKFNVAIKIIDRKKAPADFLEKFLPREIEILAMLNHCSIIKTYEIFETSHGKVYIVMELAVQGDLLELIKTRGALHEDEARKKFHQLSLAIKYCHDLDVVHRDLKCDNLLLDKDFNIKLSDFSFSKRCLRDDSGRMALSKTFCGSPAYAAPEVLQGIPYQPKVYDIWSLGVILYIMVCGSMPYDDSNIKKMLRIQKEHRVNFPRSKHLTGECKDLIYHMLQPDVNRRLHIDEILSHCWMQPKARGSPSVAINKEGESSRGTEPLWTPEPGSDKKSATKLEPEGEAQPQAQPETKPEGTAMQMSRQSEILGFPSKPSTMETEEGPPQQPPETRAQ

Work on `COc1cc2ncnc(Nc3ccc(O)c(Br)c3)c2cc1OC` yielded a residual activity [1] of 93.8%, a residual activity [2] of 103% and a residual activity [3] of 92.4%. It also gave a residual activity [4] of 84.7%, a residual activity [5] of 104% and a residual activity [6] of 28.9%. The residual activity [7] was 104%, the residual activity [8] was 97.6% and the residual activity [9] was 101%. For the same molecule, the residual activity [10] was 98.6%, the residual activity [11] was 94.1% and the residual activity [12] was 91.1%. It also gave a residual activity [13] of 77.2%, a residual activity [14] of 80.4% and a residual activity [15] of 98.8%. It also gave a residual activity [16] of 94.2%, a residual activity [17] of 80.1% and a residual activity [18] of 93.2%. For the same molecule, the residual activity [19] was 6.34%, the residual activity [20] was 94.6% and the residual activity [21] was 94.1%. It also gave a residual activity [22] of 105%, a residual activity [23] of 10.5% and a residual activity [24] of 84.1%. The residual activity [25] was 87.2%, the residual activity [26] was 92% and the residual activity [27] was 98.6%. It also gave a residual activity [28] of 100%, a residual activity [29] of 83.3% and a residual activity [30] of 63.5%. It also gave a residual activity [31] of 63%, a residual activity [32] of 97.4% and a residual activity [33] of 89.4%. It also gave a residual activity [34] of 52.2%, a residual activity [35] of 99.6% and a residual activity [36] of 91.4%. It also gave a residual activity [37] of 63.6%, a residual activity [38] of 80.7% and a residual activity [39] of 92.4%. It also gave a residual activity [40] of 92.4%, a residual activity [41] of 101% and a residual activity [42] of 97.7%.

`O=c1cc(N2CCOCC2)oc2c(-c3ccccc3)cccc12` showed a residual activity [1] of 89.2%, a residual activity [2] of 101% and a residual activity [3] of 104%. For the same molecule, the residual activity [4] was 101%, the residual activity [5] was 102% and the residual activity [6] was 92.2%. The residual activity [7] was 98.9%, the residual activity [8] was 98.2% and the residual activity [9] was 110%. For the same molecule, the residual activity [10] was 96.2%, the residual activity [11] was 97.8% and the residual activity [12] was 95.9%. For the same molecule, the residual activity [13] was 112%, the residual activity [14] was 100% and the residual activity [15] was 95.4%. It also gave a residual activity [16] of 104%, a residual activity [17] of 108% and a residual activity [18] of 102%. The residual activity [19] was 95.6%, the residual activity [20] was 100% and the residual activity [21] was 94.2%. It also gave a residual activity [22] of 101%, a residual activity [23] of 88.7% and a residual activity [24] of 105%. For the same molecule, the residual activity [25] was 102%, the residual activity [26] was 90.1% and the residual activity [27] was 47.9%. It also gave a residual activity [28] of 103%, a residual activity [29] of 93.6% and a residual activity [30] of 99.6%. For the same molecule, the residual activity [31] was 98.2%, the residual activity [32] was 97.5% and the residual activity [33] was 110%. The residual activity [34] was 98.3%, the residual activity [35] was 107% and the residual activity [36] was 103%. For the same molecule, the residual activity [37] was 92.4%, the residual activity [38] was 92.1% and the residual activity [39] was 104%. For the same molecule, the residual activity [40] was 95.5%, the residual activity [41] was 92.1% and the residual activity [42] was 103%.

`CCc1nc(-c2ccc(OC)cc2)[nH]c1-c1ccncc1` gave a residual activity [1] of 99.1%, a residual activity [2] of 89.5% and a residual activity [3] of 101%. The residual activity [4] was 106%, the residual activity [5] was 99.5% and the residual activity [6] was 106%. For the same molecule, the residual activity [7] was 101%, the residual activity [8] was 95% and the residual activity [9] was 104%. It also gave a residual activity [10] of 105%, a residual activity [11] of 99.3% and a residual activity [12] of 97.9%. It also gave a residual activity [13] of 105%, a residual activity [14] of 95.1% and a residual activity [15] of 101%. The residual activity [16] was 103%, the residual activity [17] was 88.1% and the residual activity [18] was 101%. For the same molecule, the residual activity [19] was 91.4%, the residual activity [20] was 99.8% and the residual activity [21] was 95.5%. The residual activity [22] was 86.5%, the residual activity [23] was 100% and the residual activity [24] was 91.9%. The residual activity [25] was 84.5%, the residual activity [26] was 97.4% and the residual activity [27] was 104%. It also gave a residual activity [28] of 96.1%, a residual activity [29] of 100% and a residual activity [30] of 101%. For the same molecule, the residual activity [31] was 101%, the residual activity [32] was 98.2% and the residual activity [33] was 99.9%. For the same molecule, the residual activity [34] was 95.1%, the residual activity [35] was 100% and the residual activity [36] was 88.5%. For the same molecule, the residual activity [37] was 99.1%, the residual activity [38] was 101% and the residual activity [39] was 85%. For the same molecule, the residual activity [40] was 102%, the residual activity [41] was 99.8% and the residual activity [42] was 100%.
